Test [1] concerns HDAC. As to the kind of experiment: Fluorescence-based HDAC inhibition assay in solution using HeLa nuclear extracts. It counts as biochemical.
Test [2] concerns HDAC. The description is as above.
Method: Compound HDAC inhibition activities were determined with a fluorescence-based assay in solution, using HeLa nuclear extracts purchased from IpraCell. […] Trypsin solution was then added (0.29 µg/µl final concentration) to release AMC adduct of non-acetylated peptides. After 15 min incubation at room temperature 150 µl of absolute ethanol were added and AMC-fluorescence level was measured on a Safas Xenius spectrofluorometer (λexc./λem. = 380/460 nm).
[3] abbreviates: benzamide-based multivalent HDACi, procedure of Example 8 (HeLa nuclear extracts, TosGPK(Ac)-AMC substrate).
[4] abbreviates: hydroxamic acid-based multivalent HDACi, HeLa nuclear extracts, TosGPK(Ac)-AMC substrate 43 µM, 45 min at 37 °C, average of at least 2 experiments.

Peptide text beside a SMILES is read from it. * marks the point of attachment. X1 = Nc1ccccc1NC(=O)c1ccc(CC(=O)*)cc1

Broadly, the EC50 is the concentration needed to bring the measured effect to its halfway point. Read a low EC50 as a more potent agent. `Nc1ccccc1NC(=O)c1ccc(CC(=O)NCCCNC(=O)Cc2ccc(C(=O)Nc3ccccc3N)cc2)cc1` [MuH2320, 4,4'-((Propane-1,3-diylbis(azanediyl))bis(2-oxoethane-2,1-diyl))bis(N-(2-aminophenyl)benzamide)] showed an EC50 in the test on HDAC [1] (setting [3]) of 9210 ± 2550 nM. In the test with HDAC [1] (setting [3]), `Nc1ccccc1NC(=O)CCCCCCC(=O)Nc1cccc(NC(=O)CCCCCCC(=O)Nc2ccccc2N)c1` [MuH2345, N^1,N^1'-(1,3-Phenylene)bis(N8-(2-aminophenyl)octanediamide)] had an EC50 of 31500 ± 29900 nM. As for `C[C@@H]1NC(=O)CNC(=O)[C@@H]2CCCN2C(=O)[C@H](CCCCNC(=O)Cc2ccc(C(=O)Nc3ccccc3N)cc2)NC(=O)[C@H](C)NC(=O)[C@H](C)NC(=O)CNC(=O)[C@@H]2CCCN2C(=O)[C@H](CCCCNC(=O)Cc2ccc(C(=O)Nc3ccccc3N)cc2)NC(=O)[C@H](C)NC1=O` [MuH2224, RAFT-(4-(2-X-2-oxoethyl)-N-(2-aminophenyl)benzamide)2] (cyclo(AAK(X1)PGAAK(X1)PG)), the EC50 with HDAC [2] (setting [3]) amounted to 7810 ± 5270 nM. In the case of `O=C(CCCCCCC(=O)Nc1ccccc1NC(=O)CCCCCCC(=O)NO)NO` [MuH2322, N^1,N^1'-(1,2-Phenylene)bis(N^8-hydroxyoctanediamide)], a half-maximal response with HDAC [1] (setting [4]) (EC50) required 520 ± 110 nM. On to “RAFT-(4-(2-((5-X-5-oxopentyl)amino)-2-oxoethyl)-N-(2-aminophenyl)benzamide)4 [MuH2220]”, for which, in the test with HDAC [2] (setting [3]), the EC50 stood at 1220 ± 700 nM. In the test on HDAC [1] (setting [4]), `O=C(CCCCCCc1cn(CCCCCCC(=O)NO)nn1)NO` [MuH2321, 7,7'-(1H-1,2,3-Triazole-1,4-diyl)bis(N-hydroxyheptanamide)] returned an EC50 of 230 ± 160 nM. `C[C@@H]1NC(=O)[C@H](CCCCNC(=O)CCCCCCC(=O)NO)NC(=O)CNC(=O)[C@@H]2CCCN2C(=O)[C@H](CCCCNC(=O)CCCCCCC(=O)NO)NC(=O)[C@H](C)NC(=O)[C@H](CCCCNC(=O)CCCCCCC(=O)NO)NC(=O)CNC(=O)[C@@H]2CCCN2C(=O)[C@H](CCCCNC(=O)CCCCCCC(=O)NO)NC1=O` [MuH2121, RAFT-(methyl 8-(hydroxyamino)-8-oxooctanoate)4] registered a half-maximal effective concentration (EC50) with HDAC [2] (setting [4]) of 5760 nM. That is a single-digit micromolar value. As to “RAFT-(N^1-(4-(2-amino-2-oxoethyl)phenyl)-N^8-hydroxyoctane diamide))2 [MuH2357]”, the EC50 in the test on HDAC [2] (setting [4]) is 230 ± 70 nM. `Nc1ccccc1NC(=O)c1ccc(CNC(=O)OCc2cccnc2)cc1` [MS275, reference compound]: in the test with HDAC [1] (setting [3]), the response was half-maximal at 7230 ± 2070 nM (EC50). On to `O=C(CCCCCCC(=O)Nc1cccc(NC(=O)CCCCCCC(=O)NO)c1)NO` [MuH2324, N^1,N^1'-(1,3-Phenylene)bis(N8-hydroxyoctanediamide)], for which the “increase in activity compare to the SAHA” value in the test on HDAC [1] (HDAC inhibition, versus monovalent inhibitor SAHA) worked out at 14 fold. It took 60 ± 10 nM to reach a half-maximal effect in the test with HDAC [1] (setting [4]) (EC50).

`C[C@@H]1NC(=O)[C@H](CCCCNC(=O)CCCCCCC(=O)NO)NC(=O)CNC(=O)[C@@H]2CCCN2C(=O)[C@H](CCCCNC(=O)CCCCCCC(=O)NO)NC(=O)[C@H](C)NC(=O)[C@H](CCCCNC(=O)CCCCCCC(=O)NO)NC(=O)CNC(=O)[C@@H]2CCCN2C(=O)[C@H](CCCCNC(=O)CCCCCCC(=O)NO)NC1=O` [MuH2120, RAFT-(methyl 8-(hydroxyamino)-8-oxooctanoate)4]: the EC50 with HDAC [2] (setting [4]) amounted to 2840 nM. In the test with HDAC [1] (setting [4]), `O=C(CCCCCCC(=O)Nc1ccc(NC(=O)CCCCCCC(=O)NO)cc1)NO` [MuH2323, N^1,N^1'-(1,4-Phenylene)bis(N8-hydroxyoctanediamide)] registered a concentration giving a half-maximal response (EC50) of 480 ± 320 nM. With “RAFT-(4-pentyn-1-ol)4 [MuH2123, reference compound]”, the “EC50 (µM)” value with HDAC [2] (setting [4]) is on record as “Inact”.

In the test with HDAC [2] (setting [3]), “RAFT-(N-(2-aminophenyl)-4-(2-(((1-X-1H-1,2,3-triazol-4-yl)methyl)amino)-2-oxoethyl) benzamide)4 [MuH2222]” gave an EC50 of 1760 ± 890 nM. With `O=C(CCCCCCC(=O)Nc1cc(NC(=O)CCCCCCC(=O)NO)c(NC(=O)CCCCCCC(=O)NO)cc1NC(=O)CCCCCCC(=O)NO)NO` [MuH2344, N1,N1',N1",N1‴-(Benzene-1,2,4,5-tetrayl)tetrakis(N8-hydroxyoctanediamide)], in the test on HDAC [1] (setting [4]), the EC50 worked out at 2250 ± 650 nM.

In the test with HDAC [2] (setting [3]), “RAFT-(4-(2-X-2-oxoethyl)-N-(2-aminophenyl)benzamide)4 [MuH2122]” had an EC50 of 1590 ± 870 nM.

Values taken from EP4574212A1, “HISTONE DEACETYLASE INHIBITORS” (Centre National de la Recherche Scientifique, priority 2023, dated 2025).
